{"source": "patent US9512138B2", "about": "“Compositions and methods for treating cancer” (The Regents of the University of California, priority 2012, dated 2016)", "key": {"A549 NSCLC cells": {"tested_on": "A549 NSCLC cells", "experiment": "ALDH+/CD133+ cancer stem/progenitor cell subset by Aldefluor/CD133 FACS", "type": "cell-based, human", "settings": "10 nM estradiol-17b, P<0.001", "description": "FIG. 1. Isolation of cancer stem/progenitor cell subsets as determined by assay of specific biomarkers, ALDH and CD133, and effect of estrogen exposure. NSCLC cells (A549) were treated in vitro with control (CON), 10 nM estradiol-17b (E2), or E2 in the presence of […] fulvestrant. Thereafter, aldehyde dehydrogenase (ALDH) activity and CD133 expression were analyzed by established double labeling methods using an Aldefluor Assay Kit and CD133 antibody, respectively, followed by FACS sorting. The numbers of ALDH+/CD133+ lung tumor cells, representing a putative CSC subset, was expressed as a percent of total lung tumor cells for each treatment group. […] Experiments were done in triplicate.\nSubstantial evidence has accumulated to support the role of a small subset of self-renewing cells that sustain malignant growth. […] Based on these findings, we identified CD133+/ALDH+ tumor stem/progenitor cells from human lung cancer cells in vitro using an Aldefluor assay (to isolate ALDH+ cells) (5,7,8) in combination with labeled anti-CD133 antibodies (3,10) followed by fluorescence-activated cell sorting analysis (11). In brief, ALDH activity and CD133 expression were analyzed by established double labeling methods using the Aldefluor Assay Kit (Stem Cell Technologies) and CD133/1 antibody (Miltenyi) according to the manufacturer's instructions. […] Data were analyzed using FlowJo (Tree Star Inc.). […]"}, "[1]": {"tested_on": "NF-κB/p65 phosphorylation", "experiment": "Western blot of phospho-NF-κB/p65 in H23 cells", "type": "cell-based, human", "settings": "for phosphorylation of the p65 subunit of NF-κB: 10 μM, 60 min (FIG. 7); for phosphorylation of NF-κB/p65: 10 µM, 60 min (FIG. 13)", "description": "FIG. 7. […] After 60 min Western blot were performed using anti-phospho-NF-κB/p65 antibody (Cell Signaling Technology #3031). Membranes were stripped and re-probed with antibody against total NF-κB/p65 (CST #3037).\nAfter 60 min, Western blots were done using anti-phospho-NFκB/p65 antibody (Cell Signaling).\nUpon confirming that parthenolide analogues can inhibit NSCLC cell proliferation, induce cell death and enhance the cytotoxicity of chemotherapy, we began to investigate potential cellular mechanisms that may underlie this process. For example, we used Western Blot methods to determine phosphorylation of the p65 subunit of NF-κB. H23 cells were incubated in the presence of vehicle control or 10 μM concentration of the parthenolide derivatives (JD 201, 202, 203, 204) for 60 min. After treatment, cells were collected and homogenized in lysis buffer. Extracts were electrophoresed on 4-20% gradient SDS-PAGE gels and transferred to nitrocellulose membranes. Blots were probed with anti-phospho-NF-κB/p65 and NF-κB/p65 for a loading control."}, "[2]": {"tested_on": "A549, H23, H2122 and H1975 NSCLC cells", "experiment": "MTS cell viability/proliferation assay in NSCLC cell lines, 72 h", "type": "cell-based, human", "description": "FIG. 5. Parthenolide analogues JD201-JD210 suppress human lung tumor cell proliferation in vitro. A549, H23, H2122 and H1975 NSCLC cells were treated with increasing concentrations of drugs (0.1-100 μM). After 72 h cell viability was assessed by MTS assay. Viable cells are expressed as percentage of vehicle control. P<0.01 (**), versus control group, P<0.05 (*), versus control group. Natural occurring parthenolide (PTL), parthenolide analogues JD201 (DMAPT)-JD210. Parthenolide analogues inhibit female (H1975, H2122) and male (H23, A549) NSCLC cell proliferation.\nTo determine the effect of parthenolide analogues in lung cancer cell proliferation we tested two male (A549, H23) and two female (H2122, H1975) lung cancer cell lines with increasing concentrations of parthenolide analogues (0.1, 1, 10 and 100 μM) for 72 hours."}, "MCF-7/HER2 cells": {"tested_on": "MCF-7/HER2 cells", "experiment": "MCF-7/HER2 xenografts in nude mice", "type": "in vivo", "excerpt": "(§1) Conversion of estrogen-sensitive to -resistant tumors after the start of antiestrogen therapy is a major problem in the clinic (65). This resistance may be due, in part, to enhanced growth factor signaling, a cellular response to antiestrogen treatment that eventually results in increased phosphorylation of ER and/or coactivators, such as AIB1(54). Convergence between growth factor and estrogen signaling may elicit a synergistic feed-forward circuit with more robust cell growth (FIG. 10). It is notable that tumors with HER-2 overexpression tend to respond poorly to antiestrogens (69-72). […] Such clinical data offer further evidence of the biologic interaction between HER-2 and ER. To evaluate the relation of HER-2 to clinical antiestrogen resistance, we used estrogen-responsive, MCF-7 cells with defined levels of ER that were transfected with HER-2 gene (MCF-7/HER-2). MCF-7 cells+HER-2 overexpression and parent MCF-7 cells were grown as xenografts in nude mice as before (28) (FIGS. 11A-11B).\n(§2) FIGS. 11A-11B. Overexpression of HER2 gene in MCF7 cells elicits resistance to endocrine therapy in vivo; FIG. 11A: Antiestrogen sensitivity of MCF7 parent cells without HER2 overexpression (control) in vivo. MCF7 cells were inoculated SQ in ovari-ectomized, nude mice primed with estrogen. […] Tumor volumes were recorded. […]"}, "[3]": {"tested_on": "MCF7 parent cells without HER2 overexpression", "experiment": "MCF-7 parent xenografts in nude mice", "type": "in vivo", "settings": "28 d treatment", "excerpt": "as §1, §2"}, "[4]": {"tested_on": "MCF-7/TAMR breast cancer cells", "experiment": "Proliferation of tamoxifen-resistant MCF-7/TMR (TAM-R) cells", "type": "cell-based, human", "settings": "absence of parthenolide analogues", "description": "MCF-7/CON cells are tamoxifen-sensitive, while MCF-7/HER2 and MCF-7/TMR cells are known to be tamoxifen-resistant (28,61,66,67). Except for TMR (64,68), cells were routinely cultured in RPMI 1640 media with 10% heat-inactivated FBS (28,64,66). For E2-free conditions, media were changed 48 h before studies to phenol-red free RPMI 1640 with 1% dextran-coated, charcoal-treated (DCC) FBS. TMR cells were derived by long-term continuous exposure of cells to 10^−7 M 4-hydroxy-tamoxifen by established methods (64,68) and were maintained with 10^−7 M 4-hydroxytamoxifen in medium. Levels of ERα and HER2 expression in these several cell lines were determined by use of Western blot methods.\nAssays for Tumor Cell Proliferation. Breast tumor cells were be grown in RPMI 1640 media with 10% heat-inactivated FBS (except for TMR and TZR cells as noted above). For estrogen-free conditions, medium were changed 48 h before studies to phenol-red free RPMI 1640 with 1% dextran-coated, charcoal-treated (DCC) FBS, then treated with selected reagents. Cell counts and viability tests (Trypan blue) will be done every 24 hr for […]. After 48-72 hr, proliferation was assessed by cell counts."}, "[5]": {"settings": "in vivo; cited from earlier work"}, "[6]": {"settings": "cited from earlier work"}}, "note": "Entries after “also recorded” stand apart in the source; their conditions may differ. Counter-ions that a name gives are not always drawn."}
{"compound": "estradiol-17b", "values": [{"measurement": "proportion/number of ALDH+/CD133+ cancer stem/progenitor cells", "setting": "A549 NSCLC cells", "value": "increases the proportion of cancer stem/progenitor cell subsets"}, {"measurement": "proportion/number of ALDH+/CD133+ cancer stem/progenitor cells", "setting": "A549 NSCLC cells; listed as estrogen", "value": "modest increase in the numbers of CSC"}]}
{"compound": "C/C1=C/CC[C@@]2(C)OC2[C@H]2OC(=O)[C@@H](CNCc3ccccn3)[C@@H]2CC1.O=C(O)/C=C/C(=O)O", "note": "(stereo partly drawn) [JD202, (1aR,7aS,8R,10aS,Z)-1a,5-Dimethyl-8-(((pyridin-2-ylmethyl)amino)methyl)-2,3,6,7,7a,8, 10a,10b-octahydrooxireno[2′,3′:9,10]cyclodeca[1,2-b]furan-9(1aH)-one, fumaric acid salt]", "values": [{"measurement": "phosphorylation of the p65 subunit of NF-κB", "setting": "[1]", "value": "reduced phosphorylation of the p65 subunit of NF-κB; also recorded: inhibit phosphory-lation of NF-κB/p65"}, {"measurement": "phosphorylation of NF-κB/p65", "setting": "[1]", "value": "inhibit phosphorylation of NF-κB/p65"}, {"measurement": "growth inhibition at 10 μM", "setting": "[2]; 10 μM, A549, H23, H2122, H1975", "value": "Significant growth inhibition"}, {"measurement": "growth inhibition at 100 μM", "setting": "[2]; A549, H23, H2122, H1975", "value": "Significant growth inhibition"}, {"measurement": "inhibitory activity relative to other analogues", "setting": "[2]; FIG. 5, 0.1-100 μM", "value": "greater inhibitory activity than compounds 205 and 207"}]}
{"compound": "C/C1=C\\CC[C@@]2(C)O[C@H]2[C@H]2OC(=O)/C(=C\\N3CCCCC3)[C@@H]2CC1", "note": "[JD205, (1aR,4Z,7aS,8Z,10aS)-1a,5-Dimethyl-8-(piperidin-1-ylmethylene)-2,3,6,7,7a,8,10a,10b-octahydrooxireno[2′,3′:9,10]cyclodeca[1,2-b]furan-9(1aH)-one]", "values": [{"measurement": "phosphorylation of the p65 subunit of NF-κB", "setting": "[1]", "value": "inhibit phosphory-lation of NF-κB/p65"}, {"measurement": "phosphorylation of NF-κB/p65", "setting": "[1]", "value": "inhibit phosphorylation of NF-κB/p65"}, {"measurement": "growth inhibition at 100 μM", "setting": "[2]; A549, H23, H2122, H1975", "value": "Significant growth inhibition"}]}
{"compound": "C[C@]12CC[C@@H]3c4ccc(O)cc4C[C@@H](CCCCCCCCC[S+]([O-])CCCC(F)(F)C(F)(F)F)[C@H]3[C@@H]1CC[C@@H]2O", "note": "(stereo partly drawn) [fulvestrant]", "values": [{"measurement": "antiestrogen sensitivity of MCF-7/HER-2 xenografts", "setting": "MCF-7/HER2 cells", "value": "partial sensitivity"}, {"measurement": "growth of MCF-7 parent xenografts", "setting": "[3]", "value": "markedly suppressed"}]}
{"compound": "CON(C)C[C@@H]1C(=O)O[C@H]2[C@H]1CC/C(C)=C/CC[C@@]1(C)O[C@@H]21", "note": "[JD204, (1aR,7aS,8R,10aS,Z)-8-((Methoxy(methyl)amino)methyl)-1a,5-dimethyl-2,3,6,7,7a,8,10a, 10b-octahydrooxireno[2′,3′:9,10]cyclodeca[1,2-b]furan-9(1aH)-one, fumaric acid salt]", "values": [{"measurement": "phosphorylation of the p65 subunit of NF-κB", "setting": "[1]", "value": "reduced phosphorylation of the p65 subunit of NF-κB; also recorded: inhibit phosphory-lation of NF-κB/p65"}, {"measurement": "phosphorylation of NF-κB/p65", "setting": "[1]", "value": "inhibit phosphorylation of NF-κB/p65"}]}
{"compound": "C/C1=C\\CC[C@@]2(C)O[C@H]2[C@H]2OC(=O)[C@@H](CN(C)O)[C@@H]2CC1", "note": "[JD207, (1aR,7aS,8R,10aS,Z)-8-((Hydroxy(methyl)amino)methyl)-1a,5-dimethyl-2,3,6,7,7a,8,10a, 10b-octahydrooxireno[2′,3′:9,10]cyclodeca[1,2-b]furan-9(1aH)-one, fumaric acid salt]", "values": [{"measurement": "growth inhibition at 100 μM", "setting": "[2]; A549, H23, H2122, H1975", "value": "Significant growth inhibition"}]}
{"compound": "CC/C(=C(\\c1ccccc1)c1ccc(OCCN(C)C)cc1)c1ccccc1", "note": "[tamoxifen]", "values": [{"measurement": "antiestrogen sensitivity of MCF-7/HER-2 xenografts", "setting": "MCF-7/HER2 cells", "value": "insensitive"}, {"measurement": "growth of MCF-7 parent xenografts", "setting": "[3]", "value": "markedly suppressed"}, {"measurement": "response of MCF-7/TMR cells to tamoxifen alone", "setting": "[4]", "value": "resistant"}]}
{"compound": "C/C1=C\\CC[C@@]2(C)O[C@H]2[C@H]2OC(=O)[C@@H](CN(C)C)[C@@H]2CC1", "note": "[JD201, (1aR,7aS,8R,10aS,Z)-8-((Dimethylamino)methyl)-1a,5-dimethyl-2,3,6,7,7a,8,10a,10b-octa-hydrooxireno[2′,3′:9,10]cyclodeca[1,2-b]furan-9(1aH)-one, fumaric acid salt]", "values": [{"measurement": "toxicology profile", "setting": "[5]", "value": "acceptable"}, {"measurement": "plasma concentrations", "setting": "[6]; after oral administration", "value": 40, "unit": "µM"}, {"measurement": "oral bioavaliability", "setting": "[6]; oral", "value": 70, "unit": "%"}]}
